Laboratory results as given in PubChem BioAssay (NCI).
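A five-concentration, 48-hour dose response in 96-well plates underlies each endpoint, interpolated linearly between surrounding concentrations. GI50: concentration for 50% inhibition of growth. TGI denotes the concentration required for complete inhibition of growth.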

Key:
Assay in all cases: NCI anticancer screen, dose series, 48 h
SW-620 colon = system: SW-620 colon
SR leukemia = system: SR leukemia
MALME-3M melanoma = system: MALME-3M melanoma
786-0 renal = system: 786-0 renal
LOX IMVI melanoma = system: LOX IMVI melanoma
NCI-H23 lung = system: NCI-H23 lung
SNB-75 CNS = system: SNB-75 CNS
RXF 393 renal = system: RXF 393 renal
COLO 205 colon = system: COLO 205 colon
MDA-MB-231 breast = system: MDA-MB-231 breast
HCT-116 colon = system: HCT-116 colon
TK-10 renal = system: TK-10 renal
DU-145 prostate = system: DU-145 prostate
NCI-H226 lung = system: NCI-H226 lung
U251 CNS = system: U251 CNS
A549 NSCLC = system: A549 NSCLC
MOLT-4 leukemia = system: MOLT-4 leukemia
NCI-H522 lung = system: NCI-H522 lung
SK-MEL-5 melanoma = system: SK-MEL-5 melanoma
HS 578T breast = system: HS 578T breast
HOP-92 NSCLC = system: HOP-92 NSCLC
SNB-19 CNS = system: SNB-19 CNS
HCC-2998 colon = system: HCC-2998 colon
KM12 colon = system: KM12 colon
OVCAR-4 ovarian = system: OVCAR-4 ovarian
K-562 leukemia = system: K-562 leukemia
OVCAR-5 ovarian = system: OVCAR-5 ovarian
M14 melanoma = system: M14 melanoma
CCRF-CEM leukemia = system: CCRF-CEM leukemia
MCF7 breast = system: MCF7 breast
SK-MEL-28 melanoma = system: SK-MEL-28 melanoma
SF-539 CNS = system: SF-539 CNS
A498 renal = system: A498 renal
MDA-MB-468 breast = system: MDA-MB-468 breast
SN12C renal = system: SN12C renal
UACC-62 melanoma = system: UACC-62 melanoma
ACHN renal = system: ACHN renal
UACC-257 melanoma = system: UACC-257 melanoma
T-47D breast = system: T-47D breast
SF-268 CNS = system: SF-268 CNS
SF-295 CNS = system: SF-295 CNS
IGROV1 ovarian = system: IGROV1 ovarian
OVCAR-3 ovarian = system: OVCAR-3 ovarian
PC-3 prostate = system: PC-3 prostate
EKVX NSCLC = system: EKVX NSCLC
BT-549 breast = system: BT-549 breast
OVCAR-8 ovarian = system: OVCAR-8 ovarian
NCI-H460 lung = system: NCI-H460 lung
CAKI-1 renal = system: CAKI-1 renal
SK-OV-3 ovarian = system: SK-OV-3 ovarian
HT29 colon = system: HT29 colon
HOP-62 NSCLC = system: HOP-62 NSCLC
MDA-MB-435 = system: MDA-MB-435
HL-60(TB) leukemia = system: HL-60(TB) leukemia
UO-31 renal = system: UO-31 renal
HCT-15 colon = system: HCT-15 colon
RPMI-8226 leukemia = system: RPMI-8226 leukemia

Question: For `Cc1cc(N=C(N)c2ccccc2)ccc1OCCCCCCCCn1ccnc1`, which GI50 (SW-620 colon) is on record?
Answer: 463 nM

Question: What about the TGI (SW-620 colon) of the same compound?
Answer: 20900 nM

Question: What about the GI50 (SR leukemia) of the same compound?
Answer: 327 nM

Question: What about the TGI (SR leukemia) of the same compound?
Answer: 19400 nM

Question: What about the GI50 (MALME-3M melanoma) of the same compound?
Answer: 323 nM

Question: What about the TGI (MALME-3M melanoma) of the same compound?
Answer: 1590 nM

Question: What about the GI50 (786-0 renal) of the same compound?
Answer: 483 nM

Question: And the TGI (786-0 renal)?
Answer: 4580 nM

Question: What about the GI50 (LOX IMVI melanoma) of the same compound?
Answer: 327 nM

Question: What about the TGI (LOX IMVI melanoma) of the same compound?
Answer: 1860 nM

Question: What about the GI50 (NCI-H23 lung) of the same compound?
Answer: 262 nM

Question: And the TGI (NCI-H23 lung)?
Answer: 4060 nM

Question: And the GI50 (SNB-75 CNS)?
Answer: 418 nM

Question: And the TGI (SNB-75 CNS)?
Answer: 7300 nM

Question: And the GI50 (RXF 393 renal)?
Answer: 231 nM

Question: What about the TGI (RXF 393 renal) of the same compound?
Answer: 1570 nM

Question: What about the GI50 (COLO 205 colon) of the same compound?
Answer: 354 nM

Question: What about the TGI (COLO 205 colon) of the same compound?
Answer: 1450 nM

Question: What about the GI50 (MDA-MB-231 breast) of the same compound?
Answer: 540 nM

Question: What about the TGI (MDA-MB-231 breast) of the same compound?
Answer: 4610 nM

Question: What about the GI50 (HCT-116 colon) of the same compound?
Answer: 375 nM

Question: What about the TGI (HCT-116 colon) of the same compound?
Answer: 11400 nM

Question: What about the GI50 (TK-10 renal) of the same compound?
Answer: 1460 nM

Question: What about the TGI (TK-10 renal) of the same compound?
Answer: 17200 nM

Question: What about the GI50 (DU-145 prostate) of the same compound?
Answer: 407 nM

Question: What about the TGI (DU-145 prostate) of the same compound?
Answer: 14300 nM

Question: What about the GI50 (NCI-H226 lung) of the same compound?
Answer: 332 nM

Question: And the TGI (NCI-H226 lung)?
Answer: 1790 nM

Question: And the GI50 (U251 CNS)?
Answer: 355 nM

Question: And the TGI (U251 CNS)?
Answer: 3100 nM

Question: And the GI50 (A549 NSCLC)?
Answer: 803 nM

Question: And the TGI (A549 NSCLC)?
Answer: 14900 nM

Question: And the GI50 (MOLT-4 leukemia)?
Answer: 565 nM

Question: What about the TGI (MOLT-4 leukemia) of the same compound?
Answer: 17700 nM

Question: And the GI50 (NCI-H522 lung)?
Answer: 245 nM

Question: What about the TGI (NCI-H522 lung) of the same compound?
Answer: 986 nM

Question: And the GI50 (SK-MEL-5 melanoma)?
Answer: 325 nM

Question: What about the TGI (SK-MEL-5 melanoma) of the same compound?
Answer: 1170 nM

Question: What about the GI50 (HS 578T breast) of the same compound?
Answer: 991 nM

Question: What about the TGI (HS 578T breast) of the same compound?
Answer: 12100 nM

Question: What about the GI50 (HOP-92 NSCLC) of the same compound?
Answer: 589 nM

Question: What about the TGI (HOP-92 NSCLC) of the same compound?
Answer: 7870 nM

Question: And the GI50 (SNB-19 CNS)?
Answer: 753 nM

Question: What about the TGI (SNB-19 CNS) of the same compound?
Answer: 17700 nM

Question: What about the GI50 (HCC-2998 colon) of the same compound?
Answer: 224 nM

Question: What about the TGI (HCC-2998 colon) of the same compound?
Answer: 1760 nM

Question: And the GI50 (KM12 colon)?
Answer: 444 nM

Question: And the TGI (KM12 colon)?
Answer: 13600 nM

Question: And the GI50 (OVCAR-4 ovarian)?
Answer: 2890 nM

Question: And the TGI (OVCAR-4 ovarian)?
Answer: 35300 nM

Question: What about the GI50 (K-562 leukemia) of the same compound?
Answer: 283 nM

Question: And the TGI (K-562 leukemia)?
Answer: 11200 nM

Question: What about the GI50 (OVCAR-5 ovarian) of the same compound?
Answer: 456 nM

Question: What about the TGI (OVCAR-5 ovarian) of the same compound?
Answer: 11500 nM

Question: What about the GI50 (M14 melanoma) of the same compound?
Answer: 323 nM

Question: And the TGI (M14 melanoma)?
Answer: 1310 nM

Question: What about the GI50 (CCRF-CEM leukemia) of the same compound?
Answer: 371 nM

Question: What about the TGI (CCRF-CEM leukemia) of the same compound?
Answer: 12400 nM

Question: What about the GI50 (MCF7 breast) of the same compound?
Answer: 312 nM

Question: And the TGI (MCF7 breast)?
Answer: 10700 nM

Question: And the GI50 (SK-MEL-28 melanoma)?
Answer: 1010 nM

Question: What about the TGI (SK-MEL-28 melanoma) of the same compound?
Answer: 8680 nM

Question: And the GI50 (SF-539 CNS)?
Answer: 227 nM

Question: And the TGI (SF-539 CNS)?
Answer: 567 nM

Question: And the GI50 (A498 renal)?
Answer: 8120 nM

Question: What about the TGI (A498 renal) of the same compound?
Answer: 23700 nM

Question: What about the GI50 (MDA-MB-468 breast) of the same compound?
Answer: 155 nM

Question: And the TGI (MDA-MB-468 breast)?
Answer: 694 nM

Question: And the GI50 (SN12C renal)?
Answer: 440 nM

Question: And the TGI (SN12C renal)?
Answer: 7870 nM

Question: And the GI50 (UACC-62 melanoma)?
Answer: 494 nM

Question: What about the TGI (UACC-62 melanoma) of the same compound?
Answer: 7580 nM

Question: What about the GI50 (ACHN renal) of the same compound?
Answer: 547 nM

Question: And the TGI (ACHN renal)?
Answer: 13200 nM

Question: And the GI50 (UACC-257 melanoma)?
Answer: 1470 nM

Question: What about the TGI (UACC-257 melanoma) of the same compound?
Answer: 13000 nM

Question: What about the GI50 (T-47D breast) of the same compound?
Answer: 594 nM

Question: And the TGI (T-47D breast)?
Answer: 21500 nM

Question: What about the GI50 (SF-268 CNS) of the same compound?
Answer: 1220 nM

Question: And the TGI (SF-268 CNS)?
Answer: 16600 nM

Question: What about the GI50 (SF-295 CNS) of the same compound?
Answer: 259 nM

Question: And the TGI (SF-295 CNS)?
Answer: 929 nM

Question: And the GI50 (IGROV1 ovarian)?
Answer: 634 nM

Question: And the TGI (IGROV1 ovarian)?
Answer: 12400 nM

Question: And the GI50 (OVCAR-3 ovarian)?
Answer: 366 nM

Question: And the TGI (OVCAR-3 ovarian)?
Answer: 13100 nM

Question: What about the GI50 (PC-3 prostate) of the same compound?
Answer: 460 nM

Question: And the TGI (PC-3 prostate)?
Answer: 16500 nM

Question: And the GI50 (EKVX NSCLC)?
Answer: 422 nM

Question: And the TGI (EKVX NSCLC)?
Answer: 13300 nM

Question: And the GI50 (BT-549 breast)?
Answer: 1450 nM

Question: And the TGI (BT-549 breast)?
Answer: 11100 nM

Question: What about the GI50 (OVCAR-8 ovarian) of the same compound?
Answer: 471 nM

Question: What about the TGI (OVCAR-8 ovarian) of the same compound?
Answer: 2950 nM

Question: What about the GI50 (NCI-H460 lung) of the same compound?
Answer: 388 nM

Question: And the TGI (NCI-H460 lung)?
Answer: 11600 nM

Question: What about the GI50 (CAKI-1 renal) of the same compound?
Answer: 580 nM

Question: And the TGI (CAKI-1 renal)?
Answer: 12000 nM

Question: What about the GI50 (SK-OV-3 ovarian) of the same compound?
Answer: 512 nM

Question: And the TGI (SK-OV-3 ovarian)?
Answer: 14900 nM

Question: And the GI50 (HT29 colon)?
Answer: 239 nM

Question: What about the TGI (HT29 colon) of the same compound?
Answer: 667 nM

Question: What about the GI50 (HOP-62 NSCLC) of the same compound?
Answer: 441 nM

Question: What about the TGI (HOP-62 NSCLC) of the same compound?
Answer: 15200 nM

Question: What about the GI50 (MDA-MB-435) of the same compound?
Answer: 225 nM

Question: And the TGI (MDA-MB-435)?
Answer: 573 nM

Question: What about the GI50 (HL-60(TB) leukemia) of the same compound?
Answer: 211 nM

Question: And the TGI (HL-60(TB) leukemia)?
Answer: 659 nM

Question: What about the GI50 (UO-31 renal) of the same compound?
Answer: 680 nM

Question: And the TGI (UO-31 renal)?
Answer: 8270 nM

Question: What about the GI50 (HCT-15 colon) of the same compound?
Answer: 361 nM

Question: And the TGI (HCT-15 colon)?
Answer: 11500 nM

Question: And the GI50 (RPMI-8226 leukemia)?
Answer: 352 nM

Question: And the TGI (RPMI-8226 leukemia)?
Answer: 1630 nM
